Source: PubChem BioAssay (NCI)
Values joined by “and” are separate entries in the source; they are usually repeats but may differ in a detail not shown here. Identical values can stand only once.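 Where inhibition never reached the appropriate level, the endpoint shown equals the highest concentration tested. Otherwise, values were interpolated linearly from a five-concentration, 48-hour dose response in 96-well plates. GI50 marks 50% less growth. Definition used: TGI = concentration required for complete inhibition of growth.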

Columns and labels:
Experiment in all cases: NCI anticancer screen, dose series, 48 h
SK-OV-3 ovarian = test system: SK-OV-3 ovarian
OVCAR-3 ovarian = test system: OVCAR-3 ovarian
HT29 colon = test system: HT29 colon
SF-295 CNS = test system: SF-295 CNS
HL-60(TB) leukemia = test system: HL-60(TB) leukemia
UACC-62 melanoma = test system: UACC-62 melanoma
COLO 205 colon = test system: COLO 205 colon
NCI-H226 lung = test system: NCI-H226 lung
MALME-3M melanoma = test system: MALME-3M melanoma
MCF7 breast = test system: MCF7 breast

O=C(NCc1cn(Cc2cccc(Oc3ccccc3)c2)nn1)c1cccnc1Nc1ccccc1
GI50 (SK-OV-3 ovarian): 3.79 µM
TGI (SK-OV-3 ovarian): 15.1 µM
GI50 (OVCAR-3 ovarian): 2.28 µM
TGI (OVCAR-3 ovarian): 5.46 µM
GI50 (HT29 colon): 3.65 µM
TGI (HT29 colon): 11.6 µM
GI50 (SF-295 CNS): 3.69 µM
TGI (SF-295 CNS): > 100 µM
GI50 (HL-60(TB) leukemia): 3.74 µM
TGI (HL-60(TB) leukemia): 19.5 µM
GI50 (UACC-62 melanoma): 3.02 µM
TGI (UACC-62 melanoma): 33.8 µM
GI50 (COLO 205 colon): 2.79 µM
TGI (COLO 205 colon): 5.75 µM
GI50 (NCI-H226 lung): 3.24 µM
TGI (NCI-H226 lung): > 100 µM
GI50 (MALME-3M melanoma): 16.1 µM
TGI (MALME-3M melanoma): > 100 µM
GI50 (MCF7 breast): 3.67 µM
TGI (MCF7 breast): > 100 µM

CCOc1ncn(-c2ccc(NC(=S)Nc3cccc(O)c3)cc2)n1
TGI (SK-OV-3 ovarian): > 100 µM
TGI (OVCAR-3 ovarian): > 100 µM
TGI (HT29 colon): > 100 µM
TGI (SF-295 CNS): > 100 µM
TGI (HL-60(TB) leukemia): > 100 µM
TGI (UACC-62 melanoma): > 100 µM
TGI (COLO 205 colon): > 100 µM
TGI (MCF7 breast): > 100 µM

COC[C@H]1C(=O)NCC(=O)N2NCCC[C@H]2C(=O)N(O)[C@H](C)C(=O)O[C@@H](C(C)C)[C@H](NC(=O)[C@](C)(O)[C@]2(O)CC[C@@H](CC(C)C)[C@H](C)O2)C(=O)N2NCCC[C@@H]2C(=O)N1O
GI50 (SK-OV-3 ovarian): 0.0163 µM
TGI (SK-OV-3 ovarian): 0.0306 µM
GI50 (HT29 colon): 0.0144 µM
TGI (HT29 colon): 0.0293 µM
GI50 (HL-60(TB) leukemia): 0.0151 µM
TGI (HL-60(TB) leukemia): 0.0399 µM
GI50 (UACC-62 melanoma): 0.0154 µM
TGI (UACC-62 melanoma): 0.0312 µM
GI50 (COLO 205 colon): 0.0139 µM
TGI (COLO 205 colon): 0.0284 µM
GI50 (MALME-3M melanoma): 0.0142 µM
TGI (MALME-3M melanoma): 0.0291 µM

CO/C(=N\N=C(/C)C(F)(F)F)c1ccncc1
TGI (SK-OV-3 ovarian): > 100 µM
TGI (OVCAR-3 ovarian): > 100 µM
TGI (HT29 colon): > 100 µM
TGI (HL-60(TB) leukemia): > 100 µM
TGI (UACC-62 melanoma): > 100 µM
TGI (COLO 205 colon): > 100 µM
TGI (NCI-H226 lung): > 100 µM
TGI (MALME-3M melanoma): > 100 µM
TGI (MCF7 breast): > 100 µM

CC1(C)CCc2c(cc3c(c2O)CCC(C)(C)O3)O1
TGI (SK-OV-3 ovarian): > 100 µM
TGI (OVCAR-3 ovarian): > 100 µM
TGI (HT29 colon): > 100 µM
TGI (SF-295 CNS): > 100 µM
TGI (HL-60(TB) leukemia): 77.9 µM
TGI (UACC-62 melanoma): > 100 µM
TGI (COLO 205 colon): > 100 µM
TGI (NCI-H226 lung): > 100 µM
TGI (MALME-3M melanoma): > 100 µM
TGI (MCF7 breast): > 100 µM

C=C1CC2CC[C@@]34C[C@@H]5O[C@@H]6C(O[C@H]7CC[C@H](CC(=O)OC8[C@@H](C)C9OC%10C[C@]%11(C[C@@H]%12O[C@@]%13(C[C@@H](C)[C@@H]%12O%11)C[C@H](C)[C@@H]%11OC%12CC(C(O)CO)OC%12C[C@@H]%11O%13)OC%10CC9O[C@H]8C[C@H]8O[C@@H](CC[C@@H]1O2)C[C@@H](C)C8=C)O[C@@H]7[C@@H]6O3)C5O4 (stereo partly drawn)
GI50 (SK-OV-3 ovarian): < 0.000148 µM
GI50 (OVCAR-3 ovarian): < 0.000148 µM
TGI (OVCAR-3 ovarian): 0.00108 µM and < 0.000148 µM
GI50 (HT29 colon): < 0.000148 µM
TGI (HT29 colon): 0.00784 µM and 0.00321 µM
GI50 (SF-295 CNS): < 0.000148 µM
TGI (SF-295 CNS): 0.00266 µM and 0.000528 µM
GI50 (HL-60(TB) leukemia): < 0.000148 µM
GI50 (UACC-62 melanoma): < 0.000148 µM
TGI (UACC-62 melanoma): > 1.48 µM
GI50 (COLO 205 colon): < 0.000148 µM
GI50 (NCI-H226 lung): < 0.000148 µM
TGI (MALME-3M melanoma): 0.00977 µM
TGI (MCF7 breast): > 1.48 µM

C=C/C(C)=C/[C@H](C)C(=O)C[C@H](O)CC1CC(=O)NC(=O)C1
TGI (SK-OV-3 ovarian): > 100 µM
TGI (OVCAR-3 ovarian): > 100 µM
TGI (HT29 colon): > 100 µM
TGI (SF-295 CNS): > 100 µM
TGI (HL-60(TB) leukemia): > 100 µM
TGI (UACC-62 melanoma): > 100 µM
TGI (COLO 205 colon): > 100 µM
TGI (NCI-H226 lung): > 100 µM
TGI (MALME-3M melanoma): > 100 µM
TGI (MCF7 breast): > 100 µM
